Here are results for 1 molecule from patent US8846696B2, “Purine derivatives” (Cyclacel Limited, priority 2002, dated 2014).

One data set has as its system CCRF-CEM. In words: 72-h MTT assay CCRF-CEM. The following applies: Homo sapiens, read-out: 72-h MTT IC50, acute lymphoblastic leukaemia. The data set is classed as cell-based. Here is the method:
(§1) In short: cells were seeded into 96-well plates according to doubling time and incubated overnight at 37° C. Test compounds were made up in DMSO and a ⅓ dilution series prepared in 100 μL cell media, added to cells (in triplicates) and incubated for 72 ho at 37° C. MTT was made up as a stock of 5 mg/mL in cell media and filter-sterilised. Media was removed from cells followed by a wash with 200 μL PBS. MTT solution was then added at 20 μL per well and incubated in the dark at 37° C. for 4 h. MTT solution was removed and cells again washed with 200 μL PBS. MTT dye was solubilised with 200 μL per well of DMSO with agitation.
(§2) Representative compounds of this invention were examined for their anti-proliferative effect against human tumour cell lines and immortalized non-transformed human cell lines (“normal” cell lines).
In general terms: Tetrazolium dyes change colour on reduction, which living cells bring about.

The subject of the next data set is cancer cell lines. The data set is described as follows: 72-h MTT assay, mean of cancer cell lines. The data set is classed as cell-based. The following applies: Homo sapiens, read-out: 72-h MTT IC50. The protocol:
as §1, §2

The next data set concerns the target CDK2/cyclin E (Homo sapiens (Human), UniProt P24941). In words: Kinase assay CDK2/cyclin E. The format is biochemical.
Data set [1] deals with Human tumour cell lines: A549, HT29, Saos-2. In words: 72-h MTT cytotoxicity assay, tumour cell lines A549, HT29, Saos-2. The data set is classed as cell-based. The protocol: as §1
The test system of the next data set is normal cell lines. In words: 72-h MTT assay, mean of normal cell lines. The format is cell-based. The following applies: Homo sapiens, read-out: 72-h MTT IC50. Here is the method:
as §1, §2

The next data set deals with ERK-2 (Homo sapiens (Human), UniProt P28482). In words: Kinase assay ERK-2. The conditions noted are these: read-out: Kinase inhibition ERK2 IC50.
The next data set concerns HeLa. In words: 72-h MTT assay HeLa. The format is cell-based. The following applies: Homo sapiens, read-out: 72-h MTT IC50, cervical adenocarcinoma. The protocol:
as §1, §2

The next data set has as its target CDK1/cyclin B (Homo sapiens (Human), UniProt P06493). In words: Kinase assay CDK1/cyclin B. The data set is classed as biochemical. The conditions noted are these: read-out: Kinase inhibition CDK1/cyclin B IC50.
A further data set concerns Saos-2. In words: 72-h MTT assay Saos-2. The format is cell-based. The following applies: Homo sapiens, read-out: 72-h MTT IC50, Saos-2, osteosarcoma. The protocol:
as §1, §2

The subject of the next data set is IMR90. The data set is described as follows: 72-h MTT assay IMR90. The following applies: Homo sapiens, IMR-90, 72 h, read-out: 72-h MTT IC50; IMR90, normal embryo lung fibroblast. The format is cell-based. Here is the method: as §1, §2
Another data set deals with WI38. The data set is described as follows: 72-h MTT assay WI38. The following applies: Homo sapiens, WI-38, 72 h, read-out: 72-h MTT IC50; WI38, normal foetal lung fibroblast. The format is cell-based. The protocol: as §1, §2
The test system of a further data set is K-562. The data set is described as follows: 72-h MTT assay K-562. The conditions noted are these: Homo sapiens, K562, 72 h, read-out: 72-h MTT IC50. The format is cell-based. Here is the method: as §1, §2
In data set [2] the target is cyclic AMP-dependent kinase (PKA) catalytic subunit (Homo sapiens (Human), UniProt P17612). The data set is described as follows: Kinase assay PKA. The following applies: read-out: Kinase inhibition PKA IC50.
Procedure: (§3) Recombinant cyclin D1 was expressed in E. coli. […] Reactions were stopped on ice, followed by filtration through p81 filterplates or GF/C filterplates (for CDK4) (Whatman Polyfiltronics, Kent, UK), except for CDK7 where, after stopping reaction on ice, 10 μL of 10 mg/mL avidin was added to each well and further incubated for 10 min followed by filtration as per CDK2 assay. After washing 3 times with 75 mM aq orthophosphoric acid, plates were dried, scintillant added and incorporated radioactivity measured in a scintillation counter (TopCount, Packard Instruments, Pangbourne, Berks, UK). Compounds for kinase assay were made up as 10 mM stocks in DMSO and diluted into 10% DMSO in assay buffer.
A further data set relates to Hs27. The data set is described as follows: 72-h MTT assay Hs27. The format is cell-based. The conditions noted are these: Homo sapiens, read-out: 72-h MTT IC50, Hs27, normal foreskin fibroblast. Here is the method:
as §1, §2

The conditions of data set [3]: 10 μM.
Procedure: Calibration curves were prepared at 0, 1, and 10 μM in microsomes pre-incubated for 30 min and these were also treated with methanol containing olomoucine. All samples were then centrifuged and the supernatants analysed by liquid chromatography-mass spectrometry.
The chromatography column was a Supelco LC-ABZ, 50×4.6 mm, 5 μm zwitterionic column (Supelco Inc., Supelco Park, Bellefonte, Pa., USA). Gradient eluants consisted of methanol (A) and 0.1% formic acid in water (B). […] The flow rate was 1 mL/min throughout. […] Eluant from the detector passed, without splitting, into a Thernoquest LCQ ion trap mass spectrometer fitted with an electrospray source operated in positive mode. Mass spectrometer conditions were sheath gas 80, auxiliary gas 20 (both arbitrary units), capillary voltage 4 to 4.5 kV and heated capillary temperature 250 to 280° C. The mass range was 50-750. Scan time was controlled by the ion trap which was set to a maximum ion injection time of 200 ms or the time required to inject 2×10^8 ions; for each scan the system automatically used whichever time was reached first.
The peak area ration (test compound/internal standard) of the test incubation was then compared with the peak area ratios obtained fro the calibration curve of the test compound. From these values the concentration of test compound remaining after 30 min microsomal protein incubation was determined.
For the next data set, the system named is HL-60. In words: 72-h MTT assay HL-60. The format is cell-based. The following applies: Homo sapiens, read-out: 72-h MTT IC50, HL-60, acute promyelocytic leukaemia. The protocol: as §1, §2
The subject of the next data set is MCF7. In words: 72-h MTT assay MCF7. The data set is classed as cell-based. The conditions noted are these: Homo sapiens, read-out: 72-h MTT IC50, MCF7, mammary adenocarcinoma. The protocol:
as §1, §2

Another data set concerns the target CDK7/cyclin H (Homo sapiens (Human), UniProt P50613). The data set is described as follows: Kinase assay CDK7/cyclin H. The format is biochemical. The conditions noted are these: read-out: Kinase inhibition CDK7/cyclin H IC50.
The test system of the next data set is HT-29. In words: 72-h MTT assay HT-29. The format is cell-based. The conditions noted are these: Homo sapiens, read-out: 72-h MTT IC50, HT-29, colorectal adenocarcinoma. The protocol: as §1, §2
In the next data set the test system is A549. The data set is described as follows: 72-h MTT assay A549. The following applies: Homo sapiens, read-out: 72-h MTT IC50, A549, lung carcinoma. The data set is classed as cell-based. Here is the method: as §1, §2
For another data set, the target named is CDK4/cyclin D1 (Homo sapiens (Human), UniProt P11802). The conditions noted are these: read-out: Kinase inhibition CDK4/cyclin D1 IC50.
CDK4/cyclin D1, sequence (P11802 whole entry): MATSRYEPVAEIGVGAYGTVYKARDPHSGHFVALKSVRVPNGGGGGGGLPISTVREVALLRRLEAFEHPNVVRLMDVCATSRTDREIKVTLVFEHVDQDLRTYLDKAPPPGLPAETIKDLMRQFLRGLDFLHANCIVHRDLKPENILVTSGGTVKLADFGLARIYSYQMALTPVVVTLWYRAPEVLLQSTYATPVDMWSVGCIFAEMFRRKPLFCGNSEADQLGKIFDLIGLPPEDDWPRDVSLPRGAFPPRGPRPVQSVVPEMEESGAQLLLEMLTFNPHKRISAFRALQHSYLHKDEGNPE
CDK4/cyclin D1, sequence (P24385 whole entry partner): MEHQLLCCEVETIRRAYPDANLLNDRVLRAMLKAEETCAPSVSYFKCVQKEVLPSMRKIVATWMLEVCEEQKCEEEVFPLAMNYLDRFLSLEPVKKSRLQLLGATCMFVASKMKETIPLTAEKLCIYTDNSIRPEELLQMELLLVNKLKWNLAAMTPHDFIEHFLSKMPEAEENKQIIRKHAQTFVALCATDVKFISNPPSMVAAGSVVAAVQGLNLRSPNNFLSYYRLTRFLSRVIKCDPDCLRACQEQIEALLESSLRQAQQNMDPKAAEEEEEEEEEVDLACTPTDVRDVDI

ERK-2, sequence (P28482 whole entry, species assumed): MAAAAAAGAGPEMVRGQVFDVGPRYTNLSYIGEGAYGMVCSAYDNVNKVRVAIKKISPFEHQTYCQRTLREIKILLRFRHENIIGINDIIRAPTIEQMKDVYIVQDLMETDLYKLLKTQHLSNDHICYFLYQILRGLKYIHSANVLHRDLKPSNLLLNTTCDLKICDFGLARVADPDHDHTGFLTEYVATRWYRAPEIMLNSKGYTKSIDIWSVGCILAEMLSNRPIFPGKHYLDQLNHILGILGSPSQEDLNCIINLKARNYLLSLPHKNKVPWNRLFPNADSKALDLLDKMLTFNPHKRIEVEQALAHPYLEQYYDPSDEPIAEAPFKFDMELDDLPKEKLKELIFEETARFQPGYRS
CDK7/cyclin H, sequence (P50613 whole entry): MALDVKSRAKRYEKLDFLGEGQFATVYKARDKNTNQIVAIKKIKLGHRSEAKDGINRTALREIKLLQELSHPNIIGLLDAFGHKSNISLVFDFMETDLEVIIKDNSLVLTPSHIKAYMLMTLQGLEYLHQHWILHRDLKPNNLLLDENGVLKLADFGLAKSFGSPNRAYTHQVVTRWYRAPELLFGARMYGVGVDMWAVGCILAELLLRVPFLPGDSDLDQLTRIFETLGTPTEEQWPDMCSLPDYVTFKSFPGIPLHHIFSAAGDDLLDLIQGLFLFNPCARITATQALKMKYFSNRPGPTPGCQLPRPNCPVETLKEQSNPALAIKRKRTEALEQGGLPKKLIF
CDK7/cyclin H, sequence (P51946 whole entry partner): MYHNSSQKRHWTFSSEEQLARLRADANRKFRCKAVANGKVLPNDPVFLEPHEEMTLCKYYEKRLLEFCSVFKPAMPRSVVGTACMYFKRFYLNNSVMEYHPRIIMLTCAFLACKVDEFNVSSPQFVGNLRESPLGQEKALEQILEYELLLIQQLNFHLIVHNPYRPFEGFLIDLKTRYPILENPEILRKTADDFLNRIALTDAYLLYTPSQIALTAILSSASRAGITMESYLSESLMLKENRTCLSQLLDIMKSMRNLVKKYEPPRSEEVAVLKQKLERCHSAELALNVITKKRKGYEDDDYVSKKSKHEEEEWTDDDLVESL
CDK1/cyclin B, sequence (P06493 whole entry): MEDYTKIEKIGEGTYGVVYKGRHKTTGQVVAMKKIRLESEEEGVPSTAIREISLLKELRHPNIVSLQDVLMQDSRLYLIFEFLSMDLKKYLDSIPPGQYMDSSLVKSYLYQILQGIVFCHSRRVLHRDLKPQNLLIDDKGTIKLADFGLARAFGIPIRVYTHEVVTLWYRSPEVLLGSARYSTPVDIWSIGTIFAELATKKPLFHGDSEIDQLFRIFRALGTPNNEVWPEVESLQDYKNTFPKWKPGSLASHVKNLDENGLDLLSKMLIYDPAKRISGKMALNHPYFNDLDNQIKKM
CDK1/cyclin B, sequence (P14635 whole entry partner): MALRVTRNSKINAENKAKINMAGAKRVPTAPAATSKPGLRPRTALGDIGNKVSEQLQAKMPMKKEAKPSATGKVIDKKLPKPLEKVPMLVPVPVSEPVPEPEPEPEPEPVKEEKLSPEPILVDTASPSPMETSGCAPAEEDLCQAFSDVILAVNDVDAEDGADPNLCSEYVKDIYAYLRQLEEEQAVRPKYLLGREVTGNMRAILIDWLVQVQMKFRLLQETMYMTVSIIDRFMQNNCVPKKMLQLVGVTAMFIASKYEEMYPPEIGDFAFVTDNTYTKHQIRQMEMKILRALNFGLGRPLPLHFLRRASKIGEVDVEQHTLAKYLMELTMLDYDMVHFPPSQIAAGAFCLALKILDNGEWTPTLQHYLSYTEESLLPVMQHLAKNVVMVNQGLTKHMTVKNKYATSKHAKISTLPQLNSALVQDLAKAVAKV
Procedure for CDK1/cyclin B: as §3
Procedure for CDK2/cyclin E: as §3
Procedure for CDK4/cyclin D1: as §3
Procedure for CDK7/cyclin H: Reactions were stopped on ice, followed by filtration through p81 filterplates or GF/C filterplates (for CDK4) (Whatman Polyfiltronics, Kent, UK), except for CDK7 where, after stopping reaction on ice, 10 μL of 10 mg/mL avidin was added to each well and further incubated for 10 min followed by filtration as per CDK2 assay. After washing 3 times with 75 mM aq orthophosphoric acid, plates were dried, scintillant added and incorporated radioactivity measured in a scintillation counter (TopCount, Packard Instruments, Pangbourne, Berks, UK). Compounds for kinase assay were made up as 10 mM stocks in DMSO and diluted into 10% DMSO in assay buffer.
Procedure for ERK-2: as §3

Consider `CC[C@H](Nc1nc(NCc2cccnc2)c2ncn(C(C)C)c2n1)C(C)(C)O` [(3S)-3-{9-Isopropyl-6-[(pyridin-3-ylmethyl)-amino]-9H-purin-2-ylamino}-2-methyl-pentan-2-ol], for which the IC50 was 3.7 ± 0.3 µM in the data set with CCRF-CEM; 4 ± 2 µM in the data set with cancer cell lines; 0.07 µM on CDK2/cyclin E (read-out: Kinase inhibition CDK2/cyclin E IC50); 4 µM in data set [1] (72 h, read-out: In vitro anti-proliferative activity (72-h MTT IC50), Human tumour cell lines: A549, HT29, Saos-2); > 10 µM in the data set on normal cell lines; 35 µM on ERK-2. Moreover, the IC50 in the data set with HeLa was 4.7 ± 0.5 µM; on CDK1/cyclin B it was 4.4 µM; in the data set with Saos-2 it was 3.9 ± 0.8 µM; in the data set on IMR90, > 20 µM; in the data set on WI38, > 20 µM; with K-562, 8.4 ± 1.2 µM. The IC50 in [2] is > 200 µM; in the data set with Hs27 it was 11.3 ± 0.7 µM; in the data set with HL-60, 3 ± 0.2 µM; in the data set on MCF7, 2.3 ± 0.3 µM; at CDK7/cyclin H, 2.5 µM; with HT-29, 2.3 ± 0.9 µM. Further, the results for the IC50 with A549 and on CDK4/cyclin D1 were 3.6 ± 0.2 µM and 12 µM, respectively. Besides, the “A × B” value at CDK2/cyclin E (comparative in vitro efficacy) turned out to be 3.2. Moreover, the “B: IC50 CDK2 roscovitine/IC50 CDK2 compound” value on CDK2/cyclin E (ratio to roscovitine) amounted to 1.4. Also, the “C: IC50 cytotox. roscovitine/IC50 cytotox. compound” value in data set [1] (ratio to roscovitine) is on record as 2.9. The “% Drug after 30 min. microsomal incubation” value in [3] came out at 78%.
